Laboratory results from patent US20090306135A1 (priority 2008, published 2009).
Where two headings read alike, the source gives them in different places.

Key:
[1] = Storage stability at 25 ± 2° C. and 60 ± 5% RH; format: physicochemical
[2] = Text: X-Ray tube with Cu target anode Divergence slits 1 0, Receiving slit 0.15 mm, Scatter slit 1 0 Power: 40 KV, 100 mA; Scanning speed: 2 degree/minute step: 0.02 degree; Wave length: 1.5406 A; Spray Dryer: PST01
[3] = 40 ± 2° C. and 75 ± 5% RH, 1 Month
[4] = 40 ± 2° C. and 75 ± 5% RH, 2 Month
[5] = 40 ± 2° C. and 75 ± 5% RH, 3 Month
[6] = 40 ± 2° C. and 75 ± 5% RH, Initial
[7] = 40 ± 2° C. and 75 ± 5% RH (Using BHA), 1 Month
[8] = 40 ± 2° C. and 75 ± 5% RH (Using BHA), 2 Month
[9] = 40 ± 2° C. and 75 ± 5% RH (Using BHA), Initial

CC(C)(C(=O)O)c1ccc(C(O)CCCN2CCC(C(O)(c3ccccc3)c3ccccc3)CC2)cc1.Cl (racemic) [Example 1, (±)-4-[1 hydroxy-4-[4-(hydroxydiphenylmethyl)-1-piperidinyl]-butyl]-α,α-dimethyl benzeneacetic acid hydrochloride]
Assay by HPLC ([1]; 3 Month): 99.4 % w/w on dried basis | Description ([1]; 3 Month): White Powder | Possible impurities Comp-A ([1]; 3 Month): 0.050 | Related Subs ([1]; 3 Month): 0.213 % w/w | XRD ([1]; 3 Month): Complies | Assay by HPLC ([1]; 6 Month): 98.8 % w/w on dried basis | Description ([1]; 6 Month): White Powder | Possible impurities Comp-A ([1]; 6 Month): 0.040 | Related Subs ([1]; 6 Month): 0.186 % w/w | XRD ([1]; 6 Month): Complies | Assay by HPLC ([1]; 9 Month): 100.2 % w/w on dried basis | Description ([1]; 9 Month): White Powder | Possible impurities Comp-A ([1]; 9 Month): 0.039 | Related Subs ([1]; 9 Month): 0.171 % w/w | XRD ([1]; 9 Month): Complies | Assay by HPLC ([1]; Initial): 99.0 % w/w on dried basis | Description ([1]; Initial): White Powder | Possible impurities Comp-A ([1]; Initial): 0.049 | Related Subs ([1]; Initial): 0.188 % w/w | XRD ([1]; Initial): Complies | Assay by HPLC [2, 3]: 99.4 % w/w on dried basis | Description [2, 3]: White Powder | Possible impurities Comp-A [2, 3]: 0.050 | Related Subs [2, 3]: 0.201 % w/w | XRD [2, 3]: Complies | Assay by HPLC [2, 4]: 98.7 % w/w on dried basis | Description [2, 4]: White Powder | Possible impurities Comp-A [2, 4]: 0.047 | Possible impurities ME-pF (Methyl ester of p-fexofenadine) [2, 4]: 0.002 | Possible impurities TRS-1 [2, 4]: 0.008 | Related Subs [2, 4]: 0.237 % w/w | XRD [2, 4]: Complies | Assay by HPLC [2, 5]: 99.3 % w/w on dried basis | Description [2, 5]: White Powder | Possible impurities Comp-A [2, 5]: 0.053 | Related Subs [2, 5]: 0.203 % w/w | XRD [2, 5]: Complies | Assay by HPLC [2, 6]: 99.0 % w/w on dried basis | Description [2, 6]: White Powder | Possible impurities Comp-A [2, 6]: 0.049 | Related Subs [2, 6]: 0.188 % w/w | XRD [2, 6]: Complies

CC(C)(C(=O)O)c1ccc(C(O)CCCN2CCC(C(O)(c3ccccc3)c3ccccc3)CC2)cc1.Cl (racemic) [Example 2, (±)-4-[1 hydroxy-4-[4-(hydroxydiphenylmethyl)-1-piperidinyl]-butyl]-α,α-dimethyl benzeneacetic acid hydrochloride]
Assay by HPLC [2, 7]: 99.6 % w/w on dried basis | Description [2, 7]: White powder | Possible impurities Comp-A [2, 7]: 0.069 | Possible impurities ME-mF (Methyl ester of m-fexofenadine) [2, 7]: 0.023 | Possible impurities TRS-1 [2, 7]: 0.008 | Related Subs [2, 7]: 0.227 % w/w | XRD [2, 7]: Complies | Assay by HPLC [2, 8]: 99.3 % w/w on dried basis | Description [2, 8]: White powder | Possible impurities Comp-A [2, 8]: 0.067 | Possible impurities ME-mF (Methyl ester of m-fexofenadine) [2, 8]: 0.019 | Possible impurities TRS-1 [2, 8]: 0.009 | Related Subs [2, 8]: 0.218 % w/w | XRD [2, 8]: Complies | Assay by HPLC [2, 9]: 99.3 % w/w on dried basis | Description [2, 9]: White powder | Possible impurities Comp-A [2, 9]: 0.071 | Possible impurities ME-mF (Methyl ester of m-fexofenadine) [2, 9]: 0.023 | Related Subs [2, 9]: 0.219 % w/w | XRD [2, 9]: Complies

CC(C)(C(=O)O)c1ccc(C(O)CCCN2CCC(C(O)(c3ccccc3)c3ccccc3)CC2)cc1.Cl (racemic) [amorphous fexofenadine hydrochloride, (±)-4-[1 hydroxy-4-[4-(hydroxydiphenylmethyl)-1-piperidinyl]-butyl]-α,α-dimethyl benzeneacetic acid hydrochloride]
time for which the product is stable ([2]; different storage conditions (Tables 1-3)): ≥ 3 months
